Here are results for three compounds from patent publication US8075902B2, “Diagnosis and treatment of cancer related to human dormancy” (priority 2007, dated 2011).

Structures are written as SMILES.

The conditions of data set [1]: cited from earlier work.
In data set [2] the test system is AU565 human breast cancer cells. The experiment in a line: Combination study (MTT), AU565 breast cancer cells, Example 6. It counts as cell-based. The following applies: 6 days, #3 at 2%, #5 at 4%, #6 at 12.5%, FIG. 4. The text has this: To determine if a combination of antimicrobial agents plus anti-hibernation agents would act synergistically to inhibit cancer, we carried out another study with the human breast cancer cell line AU565 in vitro. We used solution #3 as described above, which included isoniazid (INH), rifampin, ethambutol, minocycline, metronidazole, acyclovir and telithromycin at a 2% concentration of the previous mixture used in Example 5. This was to decrease the cell growth inhibition to ease interpretation of the results. We combined #3 with #6 (curcumin) and #3 with #5 (luteolin) to investigate the synergistic potential of these combinations using the following procedure. […] AU565 human breast cancer cells were routinely maintained in RPMI-1640 medium supplemented with 10% fetal bovine serum, 2 mM sodium pyruvate, and 4.2 g/L glucose. The cells were cultured at 37° C. in an atmosphere of 95% air/5% CO2 and 100% humidity. When cells reached 80% confluence, they were harvested using 0.25% trypsin/EDTA solution. The harvested cells were re-suspended in appropriate medium and reseeded in 96-well plate at a density of 3,000 cells/well/200 μl. Cells were allowed to attach for 24 h, then various concentrations of the test compositions were added to each appropriate well. […] At the end of 6 days, viable cells were measured by MTT assay as described above in Example 2. […]

Turning to `O=C1O[C@H]([C@@H](O)CO)C(O)=C1O` [Ascorbic acid], the half life in data set [1] is 30 min.

Consider `O=c1cc(-c2ccc(O)c(O)c2)oc2cc(O)cc(O)c12` [Sample #5, Luteolin], for which the “percent inhibition of tumor cell growth” value in data set [2] worked out at 10%.

As for `COc1cc(/C=C/C(=O)CC(=O)/C=C/c2ccc(O)c(OC)c2)ccc1O` [Sample #6, Curcumin], in data set [2], the “percent inhibition of tumor cell growth” value is given as 9%.
